Data: article doi:10.1101/2025.09.09.675175v1 (biorxiv, 2025)

Experiments:
[1] = molecular target: T1, GdpP-C (GdpP313-656) (Staphylococcus aureus, UniProt Q2G2T6); test: isothermal titration calorimetry; format: binding
T1 sequence (Q2G2T6 313-655): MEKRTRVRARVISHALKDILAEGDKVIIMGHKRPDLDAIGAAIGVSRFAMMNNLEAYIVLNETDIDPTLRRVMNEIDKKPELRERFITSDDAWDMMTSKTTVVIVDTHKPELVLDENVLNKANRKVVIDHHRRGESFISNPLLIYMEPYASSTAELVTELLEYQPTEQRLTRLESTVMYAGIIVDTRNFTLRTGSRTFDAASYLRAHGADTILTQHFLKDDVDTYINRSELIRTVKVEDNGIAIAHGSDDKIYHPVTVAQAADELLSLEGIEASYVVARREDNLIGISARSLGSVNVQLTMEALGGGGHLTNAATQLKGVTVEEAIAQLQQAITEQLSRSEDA

[2] = molecular target: T1, GdpP-C (GdpP313-656); test: phosphomolybdate blue Pi release, Michaelis-Menten fit; format: biochemical

CC(=O)CCCCn1c(=O)c2c(ncn2C)n(C)c1=O [pentoxifylline]
Kd [1]: 33.2 µM
Ki [2]: 68.3 µM
